Assay results taken from patent US5225543A, “Receptors method for purification of G protein-linked” (priority 1991, dated 1993).
“Also recorded” adds a separate entry of the source. Where no end group is shown, it is not given here. The star is where a group is joined. Biotin = O=C1N[C@H]2[C@H](CS[C@H]2CCCCC(=O)*)N1; Ahx = NCCCCCC(=O)O

Assays:
[1] = test system: streptavidin; assay: Effect of detergent on binding of solubilized R:L complex to streptavidin (Table 2B); conditions: for % of original R:L complex bound to SA: % R:L bound to SA × % solubilization of original R:L complex; for % of intact R:L nonbound to SA in 5 hours: streptavidin-agarose, charcoal/dextran assay
Procedure: The final determination is whether the detergent interferes with binding of the receptor:[^125 I]BioS-28. […] R:L complex in the supernatants ("non-bound to SA") after this time is measured by the charcoal/dextran assay. The % of non-bound, intact R:L complex is calculated from the ratio (R:L non-bound to SA/original R:L in the 100,000×g supernatant). The % of intact R:L complex bound to SA is calculated by subtracting % non-bound R:L from 100%. Finally, % of original R:L bound to SA=% R:L bound to SA×% solubilization of original membrane-bound R:L complex.

[2] = test system: receptor:ligand complex (GH4 C1 membranes, [^125 I]Tyr11-S14); assay: Detergent solubilization of specifically bound [^125 I]Tyr11-S14 from GH4 C1 membranes and recovery of intact complex (FIGS. 2, 3); conditions: [^125 I]Tyr11-S14, FIG. 2
Procedure: (§1) To solubilize membranes, washed pellets after the binding step are resuspended free of visible particles by pipetting and vortexing in solubilization buffer+1/100 (vol/vol) of 100× 4Pase protease inhibitors+detergent at the desired concentration. After 1 hour on ice, the samples are centrifuged at 100,000×g for 30 minutes. The supernatants are removed and held on ice and the pellets are discarded.
(§2) Sephadex G-50 columns (8×130 mm) are equilibrated with solubilization buffer containing detergent at the concentration used to solubilize membranes and 1 mg/ml bovine serum albumin. 0.2-0.5 ml samples of solubilized membranes are applied to the columns and eluted at a flow rate of about 0.7 ml/minute. 0.18 ml samples are collected. Radioactivity is determined in a gamma counter as described under "Receptor Binding Methods". Void volumes of the columns are determined by the elution volume of blue dextran. Radioactivity eluting in the void volume (>50,000 MW) was considered bound to protein. […] The mixture is held on ice for 15 minutes. Then 3 ml of 0.1M sodium phosphate (pH 7.4) is added to a final part of 4 ml per sample and the samples are rapidly (1-3 seconds) filtered over Whatman GF/B glass fiber filters and washed with 4 ml of the phosphate buffer. […] Whatman GF/B glass fiber filters are soaked in 0.3% polyethyleneimine (PEI, Sigma) for 3 hours. 25-100 ul samples of solubilized membranes are placed in 12×75 mm polypropylene tubes. Then 4 ml of solubilization buffer (without detergent) is added per sample and the samples are immediately filtered through the GFB/PEI filters (1-3 seconds) and washed with 4 ml of solubilization buffer. […] 0.5 gm of Dextran T70 (Pharmacia) is dissolved in 1 liter of water and then 5 gm of activated charcoal (Norit A, alkaline; Fisher Scientific) is added. The suspension is stirred for 10 minutes at room temperature and then stored at 4° C. until use. To measure R:L complex, 4 parts by volume of charcoal/dextran suspension are added to 1 part by volume of solubilized membrane. The samples are mixed and held on ice for 2 minutes and then centrifuged for 2 minutes at 11,000×g in a Beckman microfuge. Free radioligand is adsorbed to charcoal/dextran and is discarded with the pellet.

[3] = target: receptor:ligand complex (GH4 C1 membranes, [^125 I]BioS28) (Rattus norvegicus, UniProt P30680); assay: Detergent solubilization of receptor:[^125 I]BioS28 complex, charcoal/dextran assay (Table 2A); conditions: for solubilization and stabilization of receptor:ligand complex: [^125 I]BioS28, Table 2A; for Solubilization of specifically bound CPM (%): based on 14,013 cpm specifically bound [^125 I]BioS28 per sample; for Solubilized CPM in intact R:L complex (%): charcoal/dextran method
receptor:ligand complex (GH4 C1 membranes, [^125 I]BioS28), sequence (P30680 whole entry, one chain of several): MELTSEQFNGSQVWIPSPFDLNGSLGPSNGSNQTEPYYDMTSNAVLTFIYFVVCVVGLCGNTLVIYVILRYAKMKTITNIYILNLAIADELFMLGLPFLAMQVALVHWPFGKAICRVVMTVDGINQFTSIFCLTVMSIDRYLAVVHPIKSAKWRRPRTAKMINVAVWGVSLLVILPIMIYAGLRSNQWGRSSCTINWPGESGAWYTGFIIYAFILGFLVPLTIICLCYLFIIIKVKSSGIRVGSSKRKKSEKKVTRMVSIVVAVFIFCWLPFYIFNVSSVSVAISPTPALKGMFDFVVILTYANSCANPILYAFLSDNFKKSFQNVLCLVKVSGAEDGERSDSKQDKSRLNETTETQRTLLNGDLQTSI
Procedure: as §1, §2
Membrane solubilization is conducted as already described; however, determination of the presence of the intact receptor:ligand complex in the 100,000×g supernatant is accomplished by charcoal/dextran assay ("Methods: Assay of Solubilized, 4.").

[4] = target: T1, SRIF receptor (GH4 C1 membranes) (Rattus norvegicus, UniProt P30680); assay: Competitive radioligand binding vs [^125 I]Tyr11-S14 on GH4 C1 membranes (FIG. 4); conditions: for IC50: vs [^125 I]Tyr11-S14, 20 ug GH4 C1 membrane protein, 100,000 cpm (FIG. 4B)
T1 construct: GH4 C1 rat pituitary tumor cells; endogenous in cells; host or cells: GH4 C1 rat pituitary tumor cells (isolated membranes)
T1 sequence (P30680 whole entry): as the sequence (P30680 whole entry, one chain of several) above
Procedure: Membrane Isolation--1-8 liter batches of cells at densities of 6-10×10^5 cells/ml are pelleted in conical bottom glass centrifuge bottles (600 or 800 ml; Bellco) at 1,000× g for 5 min. The supernatants are carefully poured off and the cells are resuspended in ice cold homogenization medium (1 mM Na-bicarbonate at pH 7.6, 1 mM EDTA and 1 mM EGTA) containing 0.7% (vol/vol) of the "100×4pase" protease inhibitor cocktail (see below). Twenty ml of homogenization medium is used for every liter of suspension culture. After 5 min. on ice, the hypotonically swollen cells are homogenized with 10 strokes of a tight fitting Dounce homogenizer (Kontes, type A pestle). The homogenate is centrifuged at 1,000× g for 10 min. and the supernatant is removed and kept on ice. The 1,000× g pellet containing residual intact cells, nuclei and DNA is washed by gently homogenizing with 4 strokes with a type B pestle in one half the original volume of homogenization medium and recentrifuging for 10 min. at 1,000× g. The final 1,000× g pellet consists mostly of DNA and is discarded. The 1,000× g supernatants are combined and centrifuged at 20,000× g for 30 min. The 20,000× g pellet is washed twice in 25 mM Tris (pH 7.4), with centrifugation for 25 min. at 20,000 2 g. Final membrane pellets are resuspended in 25 mM Tris buffer to concentrations of 4-10 mg membrane protein/ml. Then the 100× 4pase protease inhibitor cocktails are added to 1% of final volume and aliquots are frozen on dry ice. Membranes are stored at -90° C. until needed. Membrane protein is assayed with the Bradford dye binding assay (Bio-Rad).
Standard Binding Assays--Binding assays are done in a binding buffer containing 50 mM HEPES (pH 7.4), 0.5% BSA and 5 mM MgCl2. The standard assay for [^125 I]SRIF analog binding to GH4 CL membranes, done in 96 well microtiter plates (Dynatech Immulon II Removawell plates), is carried out as follows: 1. Radioligand is diluted in binding buffer+PMSF/Baci to the desired cpm per vol. of 50 μl and then 50 μl aliquots are added to the wells. For non-specific binding samples, 5 μl of 40 μM cold S14 is also added per well. […] Binding is initiated by adding 150 μl per well of membrane diluted to the desired concentration (10-30 ug membrane protein/well) in binding buffer+PMSF/Baci. Plates are then covered with Linbro mylar plate sealers (Flow Labs) and placed on a Dynatech Microshaker II and binding is allowed to proceed at room temperature for 1-2 hours. Binding is stopped by centrifuging the plate for 15 minutes at 2,000×g. The supernatants are dumped off and membrane pellets washed once by addition of 200 μl of ice cold binding buffer, brief shaking and recentrifugation. Finally the individual wells are placed in 12×75 mm tubes and counted in an LKB Gammamaster counter (78% efficiency). […]

C[C@@H]1CC[C@@]2(OC1)O[C@H]1[C@@H](O)[C@H]3[C@@H]4CC[C@H]5C[C@@H](O[C@@H]6O[C@H](CO)[C@H](O[C@@H]7O[C@H](CO)[C@@H](O)[C@H](O[C@@H]8OC[C@@H](O)[C@H](O)[C@H]8O)[C@H]7O[C@@H]7O[C@H](CO)[C@H](O)[C@H](O[C@@H]8O[C@H](CO)[C@@H](O)[C@H](O)[C@H]8O)[C@H]7O)[C@H](O)[C@H]6O)[C@H](O)C[C@]5(C)[C@H]4CC[C@]3(C)[C@H]1[C@@H]2C [Digitonin]
% of intact R:L bound to SA (100% - A) [1]: 87%
% of original R:L complex bound to SA [1]: 24%
% of intact R:L nonbound to SA in 5 hours [1]: 13%
solubilization of receptor:ligand complex / bound radioligand [2]: less satisfactory but adequate levels of solubilization
% Solubilization of original R:L in membranes (A × B) [3]: 28%
solubilization and stabilization of receptor:ligand complex [3]: satisfactory results
Solubilization of specifically bound CPM (%) [3]: 55%
Solubilized CPM in intact R:L complex (%) [3]: 50%

Biotinyl-NH--SRIF14 [Bio-S14]
potency relative to S14 in competitive binding assay ([4]; % the potency of S14, 40 ug membrane protein, 85,000 cpm (FIG. 4A)): about 1.5%

Lysolecithin
% of intact R:L bound to SA (100% - A) [1]: 36%
% of original R:L complex bound to SA [1]: 16%
% of intact R:L nonbound to SA in 5 hours [1]: 65%
solubilization of receptor:ligand complex / bound radioligand [2]: less satisfactory but adequate levels of solubilization
% Solubilization of original R:L in membranes (A × B) [3]: 33%
solubilization and stabilization of receptor:ligand complex [3]: satisfactory results
Solubilization of specifically bound CPM (%) [3]: 73%
Solubilized CPM in intact R:L complex (%) [3]: 46%

C[C@H](CCC(=O)O)[C@H]1CC[C@H]2[C@@H]3CC[C@@H]4C[C@H](O)CC[C@]4(C)[C@H]3C[C@H](O)[C@]12C [Deoxycholate]
% of intact R:L bound to SA (100% - A) [1]: 89%
% of original R:L complex bound to SA [1]: 29%
% of intact R:L nonbound to SA in 5 hours [1]: 11%
solubilization of receptor:ligand complex / bound radioligand [2]: superior solubilization
% Solubilization of original R:L in membranes (A × B) [3]: 31%
solubilization and stabilization of receptor:ligand complex [3]: satisfactory results
Solubilization of specifically bound CPM (%) [3]: 93%
Solubilized CPM in intact R:L complex (%) [3]: 33%

C[C@H](CCC(=O)NCCC[N+](C)(C)CCCS(=O)(=O)[O-])[C@H]1CC[C@H]2[C@@H]3[C@H](O)C[C@@H]4C[C@H](O)CC[C@]4(C)[C@H]3C[C@H](O)[C@]12C [CHAPS]
% of intact R:L bound to SA (100% - A) [1]: 56%
% of original R:L complex bound to SA [1]: 7%
% of intact R:L nonbound to SA in 5 hours [1]: 44%
solubilization of receptor:ligand complex / bound radioligand [2]: total solubilization of radioligand is relatively low; also recorded: did not solubilize well at all at any concentration tested
% Solubilization of original R:L in membranes (A × B) [3]: 12%
Solubilization of specifically bound CPM (%) [3]: 38%
Solubilized CPM in intact R:L complex (%) [3]: 32%

Biotinyl-[NH--(CH2)5 --CO]2 --NH-(Tyr11)SRIF14 ({Biotin-Ahx-Ahx}-AGCKNFFWKTYTSC; ends and bridges not checked; UniProt P61278 103-116, looked up, variant F11Y) [Bio-12C-S14]
IC50 [4]: 2 nM

Biotinyl-[NH--(CH2)5 --CO]--NH-(Tyr11)SRIF14 ({Biotin-Ahx}-AGCKNFFWKTYTSC; ends and bridges not checked; UniProt P61278 103-116, looked up, variant F11Y) [Bio-6C-S14]
IC50 [4]: 2 nM
